According to publication PMC11766267 (International Journal of Molecular Sciences, 2025):
Values joined by “and” are separate entries in the source; they are usually repeats but may differ in a detail not shown here. Identical values can stand only once. Like-named read-outs stand apart in the source and are kept apart here.

Tests used:
HCT-116 = assay: MTT cytotoxicity assay, HCT-116; type: cell-based; conditions: Homo sapiens, 24 h treatment, mean ± SD of triplicate
Method: (§1) Subsequently, 100 µL of dimethyl sulfoxide was introduced to dissolve the insoluble formazan.

MDA-MB-231 = assay: MTT cytotoxicity assay, MDA-MB-231; type: cell-based; conditions: Homo sapiens, 24 h treatment, mean ± SD of triplicate
Method: as §1

HeLa = assay: MTT cytotoxicity assay, HeLa; type: cell-based; conditions: Homo sapiens, 24 h treatment, mean ± SD of triplicate
Method: as §1

MCF-7 [1] = assay: MTT cytotoxicity assay, MCF-7; type: cell-based, human; conditions: Homo sapiens, MCF7, 24 h, 24 h treatment, mean ± SD of triplicate
Method: as §1

[2] = MTT cytotoxicity assay, normal cell line WI-38; type: cell-based, human; conditions: human, WI-38 cells (normal human lung fibroblasts), normal (non-cancer) cell line, 24 h treatment
Method: as §1

WI-38 = assay: MTT cytotoxicity assay, normal cell line WI-38; type: cell-based, human; conditions: normal (non-cancer) cell line, 24 h treatment
Method: as §1

[3] = system: HCT-116, MDA-MB-231, HeLa, and MCF-7; assay: MTT cytotoxicity assay, ranges stated over several cell lines; type: cell-based; conditions: Homo sapiens
Outline: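 MTT read-out; insoluble formazan solubilised in DMSO.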

[4] = set-up: method as in PMID 15863696; conditions: cited from earlier work
[5] = target: T1, aromatase (CYP19A, EC 1.14.14.14) (Homo sapiens, UniProt P11511); assay: biochemical
T1 construct: Microsomal samples were isolated from tissue using the Microsome Isolation Kit; tissue BioVision K983-100; host or cells: microsomes from an unnamed tissue
T1 sequence (P11511 1-503): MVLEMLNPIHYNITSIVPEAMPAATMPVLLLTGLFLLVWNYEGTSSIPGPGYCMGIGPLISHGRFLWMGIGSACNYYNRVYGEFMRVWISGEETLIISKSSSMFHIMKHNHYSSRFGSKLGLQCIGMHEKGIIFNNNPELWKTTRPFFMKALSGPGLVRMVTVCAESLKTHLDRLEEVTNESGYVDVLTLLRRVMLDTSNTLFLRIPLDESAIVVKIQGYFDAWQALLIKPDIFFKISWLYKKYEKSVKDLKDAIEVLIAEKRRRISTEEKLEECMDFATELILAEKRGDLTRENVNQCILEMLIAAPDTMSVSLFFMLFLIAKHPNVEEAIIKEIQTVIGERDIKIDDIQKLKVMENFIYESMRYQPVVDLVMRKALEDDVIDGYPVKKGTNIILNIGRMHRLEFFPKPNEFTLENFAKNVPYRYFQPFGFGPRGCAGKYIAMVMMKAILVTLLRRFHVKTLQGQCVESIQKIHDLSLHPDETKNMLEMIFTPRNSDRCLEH
Method: In vitro aromatase assay was performed using the BioVision Aromatase Activity Assay Kit (Catalog # K983-100; BioVision, Milpitas, CA, USA). Microsomal samples were isolated from tissue using the Microsome Isolation Kit (Cat. #K249; BioVision, Milpitas, CA, USA). A standard curve was established by diluting the Fluorescence Standard provided in the kit to create a 0.5 pmole/µL solution, followed by setting up a series of standards in a white 96-well plate, adjusting the total volume to 100 µL with aromatase assay buffer. For each reaction well, a 2X concentrated mix was prepared by adding 2–48 µL of the microsomal sample and 2 µL of the NADPH generating system, bringing the final volume to 50 µL with aromatase assay buffer. Background controls (no enzyme) and positive controls (with recombinant aromatase) were included. […] After a 10 min incubation at 37 °C, 30 µL of the substrate/NADP+ mixture was added to each well, and fluorescence was measured immediately in kinetic mode for 60 min at 37 °C. Finally, the change in fluorescence was calculated to determine the specific activity of aromatase using the formula provided in the kit protocol.

MCF-7 [6] = assay: In vitro anti-estrogenic activity assay, MCF-7
MCF-7a = assay: In vitro anti-estrogenic activity assay, MCF-7a
EGFR = EGFR (Homo sapiens, UniProt P00533); assay: In vitro protein kinase inhibition assay (ELISA kit), EGFR
Sequence of EGFR (P00533 25-1210): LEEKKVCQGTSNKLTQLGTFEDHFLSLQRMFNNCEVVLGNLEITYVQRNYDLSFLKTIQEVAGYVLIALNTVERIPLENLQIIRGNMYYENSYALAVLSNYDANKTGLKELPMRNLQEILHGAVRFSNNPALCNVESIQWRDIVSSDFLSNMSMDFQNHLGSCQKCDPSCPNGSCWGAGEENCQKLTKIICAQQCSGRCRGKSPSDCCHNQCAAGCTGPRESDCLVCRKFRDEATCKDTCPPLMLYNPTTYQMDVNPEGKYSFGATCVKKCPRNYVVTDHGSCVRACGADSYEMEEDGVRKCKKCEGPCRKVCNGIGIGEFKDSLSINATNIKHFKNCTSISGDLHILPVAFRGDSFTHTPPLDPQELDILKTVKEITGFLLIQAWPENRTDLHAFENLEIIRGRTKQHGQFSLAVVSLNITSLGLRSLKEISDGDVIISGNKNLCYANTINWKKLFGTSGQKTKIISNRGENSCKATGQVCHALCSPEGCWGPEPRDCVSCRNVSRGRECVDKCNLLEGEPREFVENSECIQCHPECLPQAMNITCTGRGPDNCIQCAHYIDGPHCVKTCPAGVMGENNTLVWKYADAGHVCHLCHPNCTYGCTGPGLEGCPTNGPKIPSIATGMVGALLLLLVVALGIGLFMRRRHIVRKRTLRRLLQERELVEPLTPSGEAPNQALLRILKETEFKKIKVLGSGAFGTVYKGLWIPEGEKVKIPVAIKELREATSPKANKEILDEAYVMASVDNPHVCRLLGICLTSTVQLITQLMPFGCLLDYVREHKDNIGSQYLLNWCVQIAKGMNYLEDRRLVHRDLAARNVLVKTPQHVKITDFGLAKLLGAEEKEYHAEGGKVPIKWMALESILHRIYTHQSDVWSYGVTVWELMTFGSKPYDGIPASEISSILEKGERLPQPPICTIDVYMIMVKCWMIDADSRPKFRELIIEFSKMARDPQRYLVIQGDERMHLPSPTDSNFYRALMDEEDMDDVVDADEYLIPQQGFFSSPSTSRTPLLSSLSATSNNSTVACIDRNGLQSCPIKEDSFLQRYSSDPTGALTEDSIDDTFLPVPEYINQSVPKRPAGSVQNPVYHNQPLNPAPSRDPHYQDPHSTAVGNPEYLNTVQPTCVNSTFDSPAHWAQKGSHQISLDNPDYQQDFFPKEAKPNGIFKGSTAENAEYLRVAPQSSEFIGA

HER2 = HER2 (Homo sapiens, UniProt P04626); assay: In vitro protein kinase inhibition assay (ELISA kit), HER2
Sequence of HER2 (P04626 23-1255): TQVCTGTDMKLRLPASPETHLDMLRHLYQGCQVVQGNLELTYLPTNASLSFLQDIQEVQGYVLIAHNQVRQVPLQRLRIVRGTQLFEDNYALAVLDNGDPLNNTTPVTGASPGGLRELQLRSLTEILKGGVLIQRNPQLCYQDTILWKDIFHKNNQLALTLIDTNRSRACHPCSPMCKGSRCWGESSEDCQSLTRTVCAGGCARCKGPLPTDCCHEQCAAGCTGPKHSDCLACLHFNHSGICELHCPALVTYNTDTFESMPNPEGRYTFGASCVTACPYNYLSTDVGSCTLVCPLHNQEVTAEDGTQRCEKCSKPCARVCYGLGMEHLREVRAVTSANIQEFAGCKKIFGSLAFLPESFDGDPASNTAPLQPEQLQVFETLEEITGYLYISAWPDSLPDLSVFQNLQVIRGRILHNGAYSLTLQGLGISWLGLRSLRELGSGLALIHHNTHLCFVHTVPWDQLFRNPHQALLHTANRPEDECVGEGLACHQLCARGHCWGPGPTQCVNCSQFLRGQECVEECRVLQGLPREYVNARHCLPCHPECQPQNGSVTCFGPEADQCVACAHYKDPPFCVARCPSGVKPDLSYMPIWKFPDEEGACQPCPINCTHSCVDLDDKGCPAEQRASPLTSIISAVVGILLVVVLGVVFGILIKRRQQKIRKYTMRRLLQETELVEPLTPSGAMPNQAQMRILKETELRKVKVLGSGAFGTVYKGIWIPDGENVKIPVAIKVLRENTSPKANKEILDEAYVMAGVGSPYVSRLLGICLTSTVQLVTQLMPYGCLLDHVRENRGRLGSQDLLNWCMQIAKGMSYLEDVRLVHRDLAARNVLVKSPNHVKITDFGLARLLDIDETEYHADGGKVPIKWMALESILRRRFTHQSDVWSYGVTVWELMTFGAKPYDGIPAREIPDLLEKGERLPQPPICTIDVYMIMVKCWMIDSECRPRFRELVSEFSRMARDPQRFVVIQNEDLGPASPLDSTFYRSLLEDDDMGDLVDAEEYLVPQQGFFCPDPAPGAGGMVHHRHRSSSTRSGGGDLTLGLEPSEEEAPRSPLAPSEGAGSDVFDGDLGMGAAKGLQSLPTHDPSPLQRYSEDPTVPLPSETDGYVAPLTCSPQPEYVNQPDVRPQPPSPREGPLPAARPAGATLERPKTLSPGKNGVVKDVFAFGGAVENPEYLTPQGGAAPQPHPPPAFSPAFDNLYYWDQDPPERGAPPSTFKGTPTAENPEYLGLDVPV

CDK2 = CDK2 (Homo sapiens, UniProt P24941); assay: In vitro protein kinase inhibition assay (ELISA kit), CDK2
VEGFR-2 = VEGFR-2 (Homo sapiens, UniProt P35968); assay: In vitro protein kinase inhibition assay (ELISA kit), VEGFR-2
Sequence of VEGFR-2 (P35968 20-1356): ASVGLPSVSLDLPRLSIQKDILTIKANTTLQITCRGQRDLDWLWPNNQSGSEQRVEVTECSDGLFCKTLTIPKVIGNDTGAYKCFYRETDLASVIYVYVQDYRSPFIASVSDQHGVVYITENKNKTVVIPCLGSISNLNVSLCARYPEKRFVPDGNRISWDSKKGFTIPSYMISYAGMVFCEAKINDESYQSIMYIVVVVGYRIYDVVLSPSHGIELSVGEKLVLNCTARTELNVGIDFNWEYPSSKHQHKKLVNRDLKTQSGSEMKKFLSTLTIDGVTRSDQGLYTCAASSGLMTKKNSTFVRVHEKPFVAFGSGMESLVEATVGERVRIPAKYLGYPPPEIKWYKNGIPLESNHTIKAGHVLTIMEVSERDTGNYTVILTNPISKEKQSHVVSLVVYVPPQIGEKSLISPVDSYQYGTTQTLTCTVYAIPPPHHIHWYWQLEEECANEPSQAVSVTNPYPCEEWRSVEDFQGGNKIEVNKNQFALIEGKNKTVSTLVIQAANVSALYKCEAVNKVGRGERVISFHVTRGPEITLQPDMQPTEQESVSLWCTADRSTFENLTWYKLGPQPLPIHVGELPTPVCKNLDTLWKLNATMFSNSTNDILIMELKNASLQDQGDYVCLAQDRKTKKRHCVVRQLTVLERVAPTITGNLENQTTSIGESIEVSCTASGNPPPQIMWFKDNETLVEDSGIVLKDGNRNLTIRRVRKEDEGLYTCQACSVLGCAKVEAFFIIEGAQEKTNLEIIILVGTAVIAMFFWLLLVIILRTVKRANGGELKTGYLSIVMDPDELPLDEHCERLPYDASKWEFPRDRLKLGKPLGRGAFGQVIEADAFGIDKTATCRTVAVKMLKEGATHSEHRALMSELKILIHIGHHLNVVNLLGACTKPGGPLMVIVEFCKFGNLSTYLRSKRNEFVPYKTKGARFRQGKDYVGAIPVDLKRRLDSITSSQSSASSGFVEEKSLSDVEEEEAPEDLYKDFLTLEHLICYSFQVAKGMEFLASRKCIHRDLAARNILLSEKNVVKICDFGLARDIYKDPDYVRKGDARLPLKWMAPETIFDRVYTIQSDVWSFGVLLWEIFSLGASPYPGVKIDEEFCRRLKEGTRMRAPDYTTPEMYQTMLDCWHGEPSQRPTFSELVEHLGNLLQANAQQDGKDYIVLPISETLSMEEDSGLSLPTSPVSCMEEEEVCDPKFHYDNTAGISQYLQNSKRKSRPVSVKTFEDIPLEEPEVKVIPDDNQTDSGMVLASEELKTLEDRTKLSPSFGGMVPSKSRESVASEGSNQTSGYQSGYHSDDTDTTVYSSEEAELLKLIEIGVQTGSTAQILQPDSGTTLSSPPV

[7] = HCT-116, MDA-MB-231, HeLa, MCF-7, range, read-out: IC50 values, range over the cancer cell lines tested
[8] = cell count relative to the control (17β-E2)

COc1cccc(C(=O)/C=C/c2ccc(OCc3ccccc3)c(OC)c2)c1 [Compound 4u, (E)-3-(4-(Benzyloxy)-3-methoxyphenyl)-1-(3-methoxyphenyl)prop-2-en-1-one]
IC50 (HCT-116): 95.3 ± 4.9 µM
IC50 (MDA-MB-231): > 100 µM
IC50 (HeLa): > 100 µM
IC50 (MCF-7 [1]): 82.8 ± 4.1 µM
IC50 at 24 h [2]: 40 to 40.1 µM
IC50 (WI-38): 39 ± 2.4 µM
IC50 [3, 7]: 55.6 to 82.8 µM

O=C(/C=C/c1ccc(O)cc1)c1ccccc1 [4-hydroxychacone]
Concentration at which estrogenic activity is shown [4]: 0.0001 mol

COc1cc(/C=C/C(=O)c2ccccc2)ccc1OCc1ccccc1 [Compound 4t, (E)-3-(4-(Benzyloxy)-3-methoxyphenyl)-1-phenylprop-2-en-1-one]
IC50 (HCT-116): 68.9 ± 3.7 µM
IC50 (MDA-MB-231): 64.1 ± 3.8 µM
IC50 (HeLa): 59.3 ± 3.4 µM
IC50 (MCF-7 [1]): 55.6 ± 2.9 µM
IC50 at 24 h [2]: 40 to 40.1 µM
IC50 (WI-38): 40.1 ± 2.5 µM
IC50 [3, 7]: 55.6 to 82.8 µM

COc1ccccc1/C=C/C(=O)c1ccccc1 [Compound 4c, (E)-3-(2-Methoxyphenyl)-1-phenylprop-2-en-1-one]
IC50 (HCT-116): 28.4 ± 1.8 µM
IC50 (MDA-MB-231): 35.9 ± 2.1 µM
IC50 (HeLa): 42.5 ± 2.5 µM
IC50 (MCF-7 [1]): 23.5 ± 1.6 µM
IC50 at 24 h [2]: 77.3 to 100 µM
IC50 (WI-38): > 100 µM
IC50 [3, 7]: 23.5 to 74.5 µM

COc1cccc(/C=C/C(=O)c2ccccc2)c1 [Compound 4d, (E)-3-(3-Methoxyphenyl)-1-phenylprop-2-en-1-one]
IC50 (HCT-116): 36 ± 2.2 µM
IC50 (MDA-MB-231): 43.6 ± 2.3 µM
IC50 (HeLa): 39.4 ± 2.3 µM
IC50 (MCF-7 [1]): 29.7 ± 1.9 µM
IC50 at 24 h [2]: 77.3 to 100 µM
IC50 (WI-38): 77.3 ± 3.8 µM
IC50 [3, 7]: 23.5 to 74.5 µM

COc1ccc(C(=O)/C=C/c2ccc(OCc3ccccc3)c(OC)c2)cc1 [Compound 4v, (E)-3-(4-(Benzyloxy)-3-methoxyphenyl)-1-(4-methoxyphenyl)prop-2-en-1-one]
IC50 (HCT-116): 14.5 ± 1.1 µM
IC50 (MDA-MB-231): 10.2 ± 0.8 µM
IC50 (HeLa): 18.2 ± 1.5 µM
IC50 (MCF-7 [1]): 8.67 ± 0.6 µM
IC50 at 24 h [2]: 75.2 ± 3.9 µM
IC50 ([3]; HCT-116 and HeLa, range over the compounds named, read-out: IC50 values, range against HCT-116 and HeLa): 6.59 to 22.6 µM
IC50 ([3]; MDA-MB-231 and MCF-7, range over the compounds named, read-out: IC50 values, range against MDA-MB-231 and MCF-7): 2.08 to 13.6 µM
Inhibition (%) Aromatase ([5]; 0.01 µM, individual Data 1-3): 17% and 20%
Inhibition (%) Aromatase ([5]; 0.1 µM, individual Data 1-3): 36%
Inhibition (%) Aromatase ([5]; 1 µM, individual Data 1-3): 64% and 63%
Inhibition (%) Aromatase ([5]; 10 µM, individual Data 1-3): 84% and 87%
Inhibition (%) Aromatase ([5]; 100 µM, individual Data 1-3): 94% and 97%
IC50 ([5]; mean ± SD of triplicate, approximate values, read-out: Aromatase Inhibition IC50): 0.357 ± 0.012 µM
inhibition at 0.01 µM ([5]; read-out: Inhibition (%) Aromatase, 0.01 µM, individual Data 1-3): 18%
inhibition at 0.1 µM ([5]; read-out: Inhibition (%) Aromatase, 0.1 µM, individual Data 1-3): 34%
inhibition at 1 µM ([5]; read-out: Inhibition (%) Aromatase, 1 µM, individual Data 1-3): 66%
inhibition at 10 µM ([5]; read-out: Inhibition (%) Aromatase, 10 µM, individual Data 1-3): 85%
inhibition at 100 µM ([5]; read-out: Inhibition (%) Aromatase, 100 µM, individual Data 1-3): 95%
Cell Proliferation MCF-7 % (MCF-7 [6]; [8]): 73%
Cell Proliferation MCF-7 Cell Count (MCF-7 [6]; mean ± SD of triplicate): 13,611 ± 485
Reduction of growth/cell count (inhibition) in MCF-7 (MCF-7 [6]; relative to control): 27%
Cell Proliferation MCF-7a % (MCF-7a; [8]): 98%
Cell Proliferation MCF-7a Cell Count (MCF-7a; mean ± SD of triplicate): 20,397 ± 589
Inhibition in MCF-7a (MCF-7a; relative to control): 2%
IC50 (EGFR): 0.671 ± 0.022 µM
Inhibition (%) EGFR (EGFR; 0.01 µM, individual Data 1-3): 3.97% and 2.96% and 6%
Inhibition (%) EGFR (EGFR; 0.1 µM, individual Data 1-3): 28.6% and 31.2%
Inhibition (%) EGFR (EGFR; 1 µM, individual Data 1-3): 59.9% and 57.5%
Inhibition (%) EGFR (EGFR; 10 µM, individual Data 1-3): 82.3% and 86.7%
Inhibition (%) EGFR (EGFR; 100 µM, individual Data 1-3): 90.54% and 95%
inhibition at 0.1 µM (EGFR; read-out: Inhibition (%) EGFR, 0.1 µM, individual Data 1-3): 29.6%
inhibition at 1 µM (EGFR; read-out: Inhibition (%) EGFR, 1 µM, individual Data 1-3): 62.3%
inhibition at 10 µM (EGFR; read-out: Inhibition (%) EGFR, 10 µM, individual Data 1-3): 84.2%
inhibition at 100 µM (EGFR; read-out: Inhibition (%) EGFR, 100 µM, individual Data 1-3): 92.4%
IC50 (HER2): 1.57 ± 0.061 µM
Inhibition (%) Her2 (HER2; 0.01 µM, individual Data 1-3): 4.92% and 2.56% and 8.92%
Inhibition (%) Her2 (HER2; 0.1 µM, individual Data 1-3): 7.65% and 12.67%
Inhibition (%) Her2 (HER2; 1 µM, individual Data 1-3): 45.3% and 42.34%
Inhibition (%) Her2 (HER2; 10 µM, individual Data 1-3): 71.2% and 75.89%
Inhibition (%) Her2 (HER2; 100 µM, individual Data 1-3): 88.65% and 94.3%
inhibition at 0.1 µM (HER2; read-out: Inhibition (%) Her2, 0.1 µM, individual Data 1-3): 10.2%
inhibition at 1 µM (HER2; read-out: Inhibition (%) Her2, 1 µM, individual Data 1-3): 48.9%
inhibition at 10 µM (HER2; read-out: Inhibition (%) Her2, 10 µM, individual Data 1-3): 74.7%
inhibition at 100 µM (HER2; read-out: Inhibition (%) Her2, 100 µM, individual Data 1-3): 91.6%
IC50 (CDK2): 1.03 ± 0.032 µM
Inhibition (%) CDK2 (CDK2; 0.01 µM, individual Data 1-3): 5.2% and 8.6%
Inhibition (%) CDK2 (CDK2; 0.1 µM, individual Data 1-3): 18.3% and 24.97%
Inhibition (%) CDK2 (CDK2; 1 µM, individual Data 1-3): 47.4% and 43.2%
Inhibition (%) CDK2 (CDK2; 10 µM, individual Data 1-3): 76.2% and 84.1%
Inhibition (%) CDK2 (CDK2; 100 µM, individual Data 1-3): 89.1% and 95.3%
inhibition at 0.01 µM (CDK2; read-out: Inhibition (%) CDK2, 0.01 µM, individual Data 1-3): 6.58%
inhibition at 0.1 µM (CDK2; read-out: Inhibition (%) CDK2, 0.1 µM, individual Data 1-3): 22.9%
inhibition at 1 µM (CDK2; read-out: Inhibition (%) CDK2, 1 µM, individual Data 1-3): 51.2%
inhibition at 10 µM (CDK2; read-out: Inhibition (%) CDK2, 10 µM, individual Data 1-3): 79.3%
inhibition at 100 µM (CDK2; read-out: Inhibition (%) CDK2, 100 µM, individual Data 1-3): 92.3%
IC50 (VEGFR-2): 1.82 ± 0.062 µM
Inhibition (%) VEGFR2 (VEGFR-2; 0.01 µM, individual Data 1-3): 5.43% and 9.43%
Inhibition (%) VEGFR2 (VEGFR-2; 0.1 µM, individual Data 1-3): 15% and 21.8%
Inhibition (%) VEGFR2 (VEGFR-2; 1 µM, individual Data 1-3): 36.9% and 34.2%
Inhibition (%) VEGFR2 (VEGFR-2; 10 µM, individual Data 1-3): 67.26% and 74.3%
Inhibition (%) VEGFR2 (VEGFR-2; 100 µM, individual Data 1-3): 86% and 93.4%
inhibition at 0.01 µM (VEGFR-2; read-out: Inhibition (%) VEGFR2, 0.01 µM, individual Data 1-3): 7.43%
inhibition at 0.1 µM (VEGFR-2; read-out: Inhibition (%) VEGFR2, 0.1 µM, individual Data 1-3): 18.1%
inhibition at 1 µM (VEGFR-2; read-out: Inhibition (%) VEGFR2, 1 µM, individual Data 1-3): 39%
inhibition at 10 µM (VEGFR-2; read-out: Inhibition (%) VEGFR2, 10 µM, individual Data 1-3): 70.2%
inhibition at 100 µM (VEGFR-2; read-out: Inhibition (%) VEGFR2, 100 µM, individual Data 1-3): 89.2%
